Measured values published in patent publication US10067120B2, “Use of acetylated tubulin as a biomarker of drug response to furazanobenzimidazoles” (Basilea Pharmaceutica AG, priority 2011, dated 2018).

Columns and labels:
Format in all cases: cell-based, human
A549 NSCLC cells = assay: Immunofluorescent staining of microtubules (anti-alpha tubulin); conditions: for Microtubule phenotype of mitotic or G2/M arrested cells: 24 hours, 50 nM BAL27862, 80 nM Compound B, 20 nM Compound C
Procedure: (§1) A549 human non-small cell lung cancer (NSCLC, ATCC reference number CCL-185) cells, HeLa cervical cancer cells (ATCC reference number CCL-2) and SKBR3 breast carcinoma cells (ATCC reference number HTB-30) were seeded at densities of 50% on round microscope coverslips and cultured for 24 hours in RPMI-1640 containing 10% FCS (also referred to as FBS) at 37° C., 5% CO2. Compounds to be tested were dissolved in DMSO. The cell culture medium was replaced with medium containing the diluted compound(s) (paclitaxel, vinblastine, colchicine and nocodazole were purchased from Sigma-Aldrich) or vehicle. After treatment for the times indicated in the Brief Description of the Figures, coverslips were washed and cells were fixed in methanol/acetone (1:1) for 5 minutes at room temperature and subsequently incubated in blocking buffer (0.5% BSA and 0.1% TX-100 in PBS) for 30 minutes at room temperature. Specimens were then incubated with anti-alpha tubulin antibody (Sigma, 1:2000) for 1 hour at room temperature in blocking buffer. After several washing steps cells were incubated with AlexaFluor-488 goat-anti-mouse IgG (Molecular Probes, 1:3000) for 1 hour at room temperature followed by several washing steps with blocking buffer. Specimens were then mounted with ProLong Gold antifade (Molecular Probes) sealed with nail polish and examined with a Leica immunofluorescence microscope. Images were captured with a cooled CCD-camera and processed by ImageJ software.

A549 = assay: Crystal Violet proliferation assay, BAL27862-resistant versus parental A549; conditions: for Resistance factor (ratio IC50 BAL27862-resistant cell line variant versus IC50 parental cell line): 72 hours, Crystal Violet
Procedure: (§2) BAL27862-resistant sublines of human non-small cell lung cancer (H460 ATCC reference HTB-177; A549 ATCC reference CCL-185), ovarian cancer (SKOV3 ATCC reference HTB-77) and T-cell leukemia (Jurkat ATCC reference TIB-152) cell lines were generated by long-term selection in complete cell culture medium (RPMI-1640 containing 10% FBS; Sigma-Aldrich) by increasing BAL27862 concentrations in a stepwise fashion. […] The resistance factors were determined for the adherent cell lines H460, A549 and SKOV3 by measuring proliferation using the Crystal Violet assay, whereas for the suspension Jurkat cell line cell death was measured using FACS. The resistant sub lines were expanded at the highest tolerated BAL27862 concentration and subsequently frozen and stored in liquid nitrogen.
(§3) A549 (2000 cells/well), H460 (1000 cells/well) and SKOV3 (2000 cells/well) cells were seeded in 96 well plates. […] After medium was removed, cells were fixed and stained by adding 50 μl Crystal Violet stain (0.2% Crystal Violet in 50% Methanol) per well. Plates were incubated for 1 hour at room temperature. Subsequently the stain was decanted and plates were washed 4 times with double-distilled water. Plates were air-dried for several hours. Stain was dissolved by adding 100 μl buffer (0.1 M Tris pH 7.5, 0.2% SDS, 20% Ethanol) per well and shaking the plates. Absorbance at 590 nm was measured using a SpectraMax M2e plate reader (Molecular Devices).
(§4) Antiproliferative IC50 and cell death EC50 values were calculated from concentration response curves using GraphPad Prism software. Resistance factors were calculated as a ratio of the IC50 or EC50 in the resistant line variant versus the IC50 or EC50 in the parental line.

SKOV3 = assay: Crystal Violet proliferation assay, BAL27862-resistant versus parental SKOV3; conditions: for Resistance factor (ratio IC50 BAL27862-resistant cell line variant versus IC50 parental cell line): 72 hours, Crystal Violet
Procedure: as §2, §3, §4

BAL27862-resistant cells = assay: Response of BAL27862-resistant lines to other microtubule agents (all lines tested); conditions: all lines tested (Table 1)
Procedure: as §2
A549 (2000 cells/well), H460 (1000 cells/well) and SKOV3 (2000 cells/well) cells were seeded in 96 well plates. […] After medium was removed, cells were fixed and stained by adding 50 μl Crystal Violet stain (0.2% Crystal Violet in 50% Methanol) per well. […] Absorbance at 590 nm was measured using a SpectraMax M2e plate reader (Molecular Devices).
as §4

H460 = assay: Crystal Violet proliferation assay, BAL27862-resistant versus parental H460; conditions: for Resistance factor (ratio IC50 BAL27862-resistant cell line variant versus IC50 parental cell line): 72 hours, Crystal Violet
Procedure: as §2, §3, §4

Jurkat = assay: FACS cell death assay, BAL27862-resistant versus parental Jurkat cells expressing GFP
Procedure: as §2, with “The resistant sub lines were expanded at the highest tolerated BAL27862 concentration and subsequently frozen and stored in liquid nitrogen.” left out
Jurkat cells stably expressing GFP (green fluorescence protein) were incubated with increasing BAL27862 concentrations in culture medium for 72 hours and then analyzed by FACS (excitation at 488 nm, emission at 525 nm). Dying or dead cells, showing a decreased fluorescence activity in comparison to living cells, were quantified (Green fluorescent protein as a novel tool to measure apoptosis and necrosis. Strebel et al, 2001, Cytometry 43(2): 126-133).
as §4

[1] = test system: HeLa cervical cancer cells; assay: Immunofluorescent staining of microtubules (anti-alpha tubulin); conditions: 24 hours, 50 nM BAL27862
Procedure: as §1

[2] = test system: SKBR3 breast cancer cells; assay: as above; conditions: 24 hours, 50 nM BAL27862
Procedure: as §1

Row | Compound | Microtubule phenotype of mitotic or G2/M arrested cells (A549 NSCLC cells) | Resistance factor (ratio IC50 BAL27862-resistant cell line variant versus IC50 parental cell line) (A549) | Resistance factor (ratio IC50 BAL27862-resistant cell line variant versus IC50 parental cell line) (SKOV3; SKOV3 resistant 1) | Resistance factor (ratio IC50 BAL27862-resistant cell line variant versus IC50 parental cell line) (SKOV3; SKOV3 resistant 2) | Resistance factor (ratio IC50 BAL27862-resistant cell line variant versus IC50 parental cell line) (H460) | other results
1 | Nc1ccc(C(=O)Cn2c(-c3nonc3N)nc3ccccc32)cc1 [Compound B, 2-[2-(4-Amino-furazan-3-yl)-benzoimidazol-1-yl]-1-(4-amino-phenyl)-ethanone] | dot-like structures | – | – | – | – | –
2 | CC(=O)O[C@H]1C(=O)[C@@]2(C)[C@H]([C@H](OC(=O)c3ccccc3)[C@]3(O)C[C@H](OC(=O)[C@H](O)[C@@H](NC(=O)c4ccccc4)c4ccccc4)C(C)=C1C3(C)C)[C@]1(OC(C)=O)CO[C@@H]1C[C@@H]2O [Paclitaxel, paclitaxel] | – | 0.06 | 0.4 | 0.5 | 0.3 | Sensitivity of BAL27862-resistant lines compared to parental lines (BAL27862-resistant cells): increased sensitivity
3 | CC[C@]1(O)C[C@@H]2CN(CCc3c([nH]c4ccccc34)[C@@](C(=O)OC)(c3cc4c(cc3OC)N(C)[C@H]3[C@@](O)(C(=O)OC)[C@H](OC(C)=O)[C@]5(CC)C=CCN6CC[C@]43[C@@H]65)C2)C1 [Vinblastine, vinblastine] | – | 2.3 | 15.7 | – | 4.6 | –
4 | N#CCCNc1nonc1-c1nc2ccccc2n1CC(=O)c1ccc(N)nc1 [Compound C, 3-(4-{1-[2-(6-Amino-pyridin-3-yl)-2-oxo-ethyl]-1H-benzoimidazol-2-yl}-furazan-3-ylamino)-propionitrile] | dot-like structures | – | – | – | – | –
5 | COC(=O)Nc1nc2ccc(C(=O)c3cccs3)cc2[nH]1 [Nocodazole, nocodazole] | – | 1.6 | 3.6 | 3.9 | 1.3 | –
6 | COc1cc2c(c(OC)c1OC)-c1ccc(OC)c(=O)cc1[C@@H](NC(C)=O)CC2 [Colchicine, colchicine] | – | 0.9 | 2.0 | 2.8 | 1.6 | –
7 | N#CCCNc1nonc1-c1nc2ccccc2n1CC(=O)c1ccc(N)cc1 [BAL27862, 3-(4-{1-[2-(4-Amino-phenyl)-2-oxo-ethyl]-1H-benzoimidazol-2-yl}-furazan-3-ylamino)-propionitrile] | dot-like structures | 3.0 | 7.6 | 11.6 | 5.3 | Resistance factor versus parental line (based on IC50) (A549): 3.0 fold; Resistance factor versus parental line (based on IC50) (SKOV3; SKOV3 resistant 1): 7.6 fold; Resistance factor versus parental line (based on IC50) (SKOV3; SKOV3 resistant 2): 11.6 fold; Resistance factor versus parental line (based on EC50) (Jurkat): 22.5 fold; Resistance factor (ratio EC50 BAL27862-resistant cell line variant versus EC50 parental cell line) (Jurkat; 72 hours, cell death by FACS): 22.5; Microtubule phenotype of mitotic or G2/M arrested cells [1]: dot-like structures; Microtubule phenotype on combination treatment (A549 NSCLC cells; 24 hours vinblastine, colchicine, paclitaxel or nocodazole, BAL27862 added for the last 4 hours): disruption of the microtubule structures; Microtubule phenotype of mitotic or G2/M arrested cells [2]: dot-like structures; Resistance factor versus parental line (based on IC50) (H460): 5.3 fold
